From patent US4383992A, “Water-soluble steroid compounds” (priority 1982, dated 1983)

Assay: Dissolution of steroid with alpha-cyclodextrin in aqueous suspension
Format: physicochemical
Conditions: 120 mg alpha-cyclodextrin added to 5 ml aqueous suspension, room temperature, agitated for several minutes
Description: 120 mg of alpha-cyclodextrin was added to 5 ml of an aqueous suspension of dexamethasone at room temperature.

Compound: C[C@@H]1C[C@H]2[C@@H]3CCC4=CC(=O)C=C[C@]4(C)[C@@]3(F)[C@@H](O)C[C@]2(C)[C@@]1(O)C(=O)CO [dexamethasone, 9-Fluoro-11β,17,21-trihydroxy-16α-methylpregna-1,4-diene-3,20-dione]
- dissolution of steroid with alpha-cyclodextrin: did not dissolve and remained in suspension
